Experimental data: US11566007B2, “Ras inhibitors” (Revolution Medicines, Inc., priority 2019, dated 2023)
pIC50: −log10 of the molar value.

Columns and labels:
K-Ras G12C = K-Ras G12C (Homo sapiens (Human), UniProt P01116+P62937, G12C); assay: Ras-Raf (BRAF RBD) disruption / FRET / MOA assay, KRAS G12C; assay type: biochemical; settings: KRAS G12C; Ras-Raf disruption/FRET/MOA assay; read-out: IC50* KRAS G12C FRET data
Outline: (§1)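 Compound-driven ternary complex of nucleotide-loaded Ras with cyclophilin A, disrupting BRAF RBD binding. 10-point 3-fold dilution from 30 μM final, 3 h at 25° C, then anti-His Eu-W1024 (10 nM) and anti-GST allophycocyanin (50 nM) for 1.5 h. IC50 from TR-FRET ratio decrease versus DMSO.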

NRAS G12C = NRAS G12C (Homo sapiens (Human), UniProt P01111+P62937, G12C); assay: Ras-Raf (BRAF RBD) disruption / FRET / MOA assay, NRAS G12C; assay type: biochemical; settings: read-out: IC50* NRAS G12C FRET data
Outline: as §1

NCI-H358 (K-Ras G12C) = assay: CellTiter-Glo cell viability assay, NCI-H358; assay type: cell-based, human; settings: Homo sapiens, NCI-H358, 120 h, NCI-H358, 5-day treatment; class symbols; read-out: Additional H358 Cell Viability assay data (K-Ras G12C, IC50)
Outline: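 Luminescent viability readout on day 5 after direct compound addition to plated cells; plates sat ~30 min at room temperature before reading. Values expressed as percent of mean DMSO signal, curves fit with a four-parameter logistic model.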

NRAS Q61R = NRAS Q61R (Homo sapiens (Human), UniProt P01111+P62937, Q61R); assay: Ras-Raf (BRAF RBD) disruption / FRET / MOA assay, NRAS Q61R; assay type: biochemical; settings: NRAS Q61R; Ras-Raf disruption/FRET/MOA assay; read-out: IC50* NRAS Q61R FRET data
Outline: (§2)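 Compounds (30 μM top final, 10-point 3-fold dilutions) incubated 3 h at 25° C with nucleotide-loaded Ras, cyclophilin A and BRAF RBD. Detection with 10 nM anti-His Eu-W1024 and 50 nM anti-GST allophycocyanin over another 1.5 h. Lowered TR-FRET ratio relative to DMSO wells gives IC50.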

NRAS Q61K = NRAS Q61K (Homo sapiens (Human), UniProt P01111+P62937, Q61K); assay: Ras-Raf (BRAF RBD) disruption / FRET / MOA assay, NRAS Q61K; assay type: biochemical; settings: NRAS Q61K; Ras-Raf disruption/FRET/MOA assay; read-out: IC50* NRAS Q61K FRET data
Outline: as §2

KRAS G12D = KRAS G12D (Homo sapiens (Human), UniProt P01116+P62937, G12D); assay: Ras-Raf (BRAF RBD) disruption / FRET / MOA assay, KRAS G12D; assay type: biochemical; settings: Ras-Raf disruption/FRET/MOA assay; class symbols; read-out: KRAS G12D FRET data IC50
Outline: as §1

KRAS G12S = KRAS G12S (Homo sapiens (Human), UniProt P01116+P62937, G12S); assay: Ras-Raf (BRAF RBD) disruption / FRET / MOA assay, KRAS G12S; assay type: biochemical; settings: Ras-Raf disruption/FRET/MOA assay; class symbols; read-out: KRAS G12S FRET data IC50
Outline: as §1

Chain of KRAS G12S (P01116-2 other isoform, or with tags, fused parts or gaps G12S): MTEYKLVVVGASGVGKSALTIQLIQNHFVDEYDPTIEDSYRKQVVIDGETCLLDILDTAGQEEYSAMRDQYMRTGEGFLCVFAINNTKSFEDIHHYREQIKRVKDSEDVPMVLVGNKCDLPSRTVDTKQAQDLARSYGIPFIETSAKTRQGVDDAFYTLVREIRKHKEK
Chain of KRAS G12S (P62937 whole entry): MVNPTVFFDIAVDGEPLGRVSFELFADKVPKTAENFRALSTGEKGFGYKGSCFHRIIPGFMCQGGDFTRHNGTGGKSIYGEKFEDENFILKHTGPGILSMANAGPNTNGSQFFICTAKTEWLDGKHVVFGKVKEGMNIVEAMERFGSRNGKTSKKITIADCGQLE
Chain of K-Ras G12C (P01116-2 other isoform, or with tags, fused parts or gaps G12C): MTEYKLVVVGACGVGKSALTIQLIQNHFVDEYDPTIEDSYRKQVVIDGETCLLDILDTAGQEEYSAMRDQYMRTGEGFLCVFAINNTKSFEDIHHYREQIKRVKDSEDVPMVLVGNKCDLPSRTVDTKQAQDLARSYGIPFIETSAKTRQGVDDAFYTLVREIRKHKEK
Chain of K-Ras G12C (P62937 whole entry): as the sequence (P62937 whole entry) above
Chain of NRAS Q61R (P01111 whole entry Q61R): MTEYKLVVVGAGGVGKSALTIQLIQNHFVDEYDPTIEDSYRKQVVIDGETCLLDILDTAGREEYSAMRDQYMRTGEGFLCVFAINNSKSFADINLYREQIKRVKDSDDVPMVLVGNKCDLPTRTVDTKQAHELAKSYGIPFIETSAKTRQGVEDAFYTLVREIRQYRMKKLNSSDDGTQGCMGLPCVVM
Chain of NRAS Q61R (P62937 whole entry): as the sequence (P62937 whole entry) above
Chain of NRAS Q61K (P01111 whole entry Q61K): as the sequence (P01111 whole entry Q61R) above, with R61K counted along it
Chain of NRAS Q61K (P62937 whole entry): as the sequence (P62937 whole entry) above
Chain of NRAS G12C (P01111 whole entry G12C): as the sequence (P01111 whole entry Q61R) above, with G12C, R61Q counted along it
Chain of NRAS G12C (P62937 whole entry): as the sequence (P62937 whole entry) above
Chain of KRAS G12D (P01116-2 other isoform, or with tags, fused parts or gaps G12D): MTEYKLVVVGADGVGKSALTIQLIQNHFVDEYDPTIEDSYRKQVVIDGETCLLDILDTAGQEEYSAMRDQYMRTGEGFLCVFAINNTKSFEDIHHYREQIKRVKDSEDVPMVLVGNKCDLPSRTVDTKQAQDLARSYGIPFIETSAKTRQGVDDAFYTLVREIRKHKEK
Chain of KRAS G12D (P62937 whole entry): as the sequence (P62937 whole entry) above

SMILES	pIC50 (K-Ras G12C)	pIC50 (NRAS G12C)	pIC50 (NCI-H358 (K-Ras G12C))	pIC50 (NRAS Q61R)	pIC50 (NRAS Q61K)	pIC50 (KRAS G12D)	pIC50 (KRAS G12S)
C=CC(=O)N1CC[C@H]2[C@@H](C1)CN2C(=O)N(C)[C@H](C(=O)N[C@H]1Cc2nc(cs2)-c2ccc3c(c2)c(c(-c2cccnc2[C@H](C)OC)n3CC)CC(C)(C)COC(=O)[C@@H]2CCCN(N2)C1=O)C(C)C (atropisomer, axis not shown) [Example A687]	6.00 to 7.00	6.00 to 7.00	7.00 to 8.00	6.00 to 7.00	7.00 to 8.00	5.00 to 6.00	6.00 to 7.00
CCn1c(-c2cccnc2[C@H](C)OC)c2c3cc(ccc31)-c1csc(n1)C[C@H](NC(=O)C[C@@H]1COC3(CN(C(=O)C#CC(C)(C)N(C)C)C3)O1)C(=O)N1CCC[C@H](N1)C(=O)OCC(C)(C)C2 (atropisomer, axis not shown) [Example A691]	> 8.00	> 8.00	> 8.00	5.00 to 6.00	5.00 to 6.00	5.00 to 6.00	5.00 to 6.00
CCn1c(-c2cccnc2[C@H](C)OC)c2c3cc(ccc31)-c1cnc(o1)C[C@H](NC(=O)[C@H](C(C)C)N(C)C(=O)[C@H]1CCN(C(=O)C#CC(C)(C)N(C)C)C1)C(=O)N1CCC[C@H](N1)C(=O)OCC(C)(C)C2 (atropisomer, axis not shown) [Example A692, (3S)-1-(4-(dimethylamino)-4-methylpent-2-ynoyl)-N-((2S)-1-(((6^3S,4S)-1^1-ethyl-1^2-(2-((S)-1-methoxyethyl)pyridin-3-yl)-10,10-dimethyl-5,7-dioxo-6^1,6^2,6^3,6^4,6^5,6^6-hexahydro-1^1H-8-oxa-2(5,2)-oxazola-1(5,3)-indola-6(1,3)-pyridazinacycloundecaphane-4-yl)amino)-3-methyl-1-oxobutan-2-yl)-N-methylpyrrolidine-3-carboxamide]	> 8.00	> 8.00	> 8.00	< 5.00	< 5.00	< 5.00	5.00 to 6.00
C=CC(=O)N1CCOC2(CCN(C(=O)N(C)[C@H](C(=O)N[C@H]3Cc4nc(cs4)-c4ccc5c(c4)c(c(-c4cccnc4[C@H](C)OC)n5CC)CC(C)(C)COC(=O)[C@@H]4CCCN(N4)C3=O)C(C)C)CC2)C1 (atropisomer, axis not shown) [Example A695]	6.00 to 7.00	7.00 to 8.00	7.00 to 8.00	6.00 to 7.00	6.00 to 7.00	5.00 to 6.00	6.00 to 7.00
C=CC(=O)N1CCC2(CC1)CCN(C(=O)N(C)[C@H](C(=O)N[C@H]1Cc3nc(cs3)-c3ccc4c(c3)c(c(-c3cccnc3[C@H](C)OC)n4CC)CC(C)(C)COC(=O)[C@@H]3CCCN(N3)C1=O)C(C)C)CC2 (atropisomer, axis not shown) [Example A697]	7.00 to 8.00	7.00 to 8.00	7.00 to 8.00	7.00 to 8.00	7.00 to 8.00	6.00 to 7.00	6.00 to 7.00
C=CC(=O)N1CCC(F)(C(=O)N(C)[C@H](C(=O)N[C@H]2Cc3nc(cs3)-c3ccc4c(c3)c(c(-c3cccnc3[C@H](C)OC)n4CC)CC(C)(C)COC(=O)[C@@H]3CCCN(N3)C2=O)C(C)C)CC1 (atropisomer, axis not shown) [Example A700]	7.00 to 8.00	7.00 to 8.00	> 8.00	6.00 to 7.00	6.00 to 7.00	6.00 to 7.00	6.00 to 7.00
C=CC(=O)N1CCO[C@H]2CN(C(=O)N(C)[C@H](C(=O)N[C@H]3Cc4nc(cs4)-c4ccc5c(c4)c(c(-c4cccnc4[C@H](C)OC)n5CC)CC(C)(C)COC(=O)[C@@H]4CCCN(N4)C3=O)C(C)C)C[C@H]21 (atropisomer, axis not shown) [Example A706]	7.00 to 8.00	7.00 to 8.00	> 8.00	6.00 to 7.00	6.00 to 7.00	< 5.00	5.00 to 6.00
CO[C@@H](C)c1ncccc1-c1c2c3cc(ccc3n1CC(F)(F)F)-c1cnc(o1)C[C@H](NC(=O)[C@H](C(C)C)N(C)C(=O)[C@H]1CCN(C(=O)C#CC(C)(C)N(C)C)C1)C(=O)N1CCC[C@H](N1)C(=O)OCC(C)(C)C2 (atropisomer, axis not shown) [Example A707]	> 8.00	> 8.00	> 8.00	< 5.00	< 5.00	5.00 to 6.00	5.00 to 6.00
CO[C@@H](C)c1ncccc1-c1c2c3nc(ccc3n1CC(F)(F)F)-c1cccc(c1)C[C@H](NC(=O)[C@@H](COC1CN(C(=O)C#CC(C)(C)N(C)C)C1)C(C)C)C(=O)N1CCC[C@H](N1)C(=O)OCC(C)(C)C2 (atropisomer, axis not shown) [Example A724]	7.00 to 8.00	7.00 to 8.00	> 8.00	< 5.00	< 5.00	< 5.00	< 5.00
CCn1c(-c2cccnc2[C@H](C)OC)c2c3cc(ccc31)-c1cccc(c1)C[C@H](NC(=O)[C@H](C(C)C)N1CO[C@@]3(CCN(C(=O)C#CC(C)(C)N4CCC4)C3)C1=O)C(=O)N1CCC[C@H](N1)C(=O)OCC(C)(C)C2 (atropisomer, axis not shown) [Example A733]	7.00 to 8.00	7.00 to 8.00	> 8.00	< 5.00	< 5.00	< 5.00	5.00 to 6.00
C=CC(=O)N1CCN(C(=O)N(C)[C@H](C(=O)N[C@H]2Cc3nc(cs3)-c3ccc4c(c3)c(c(-c3cccnc3[C@H](C)OC)n4CC)CC(C)(C)COC(=O)[C@@H]3CCCN(N3)C2=O)C(C)C)[C@@H]2C[C@@H]21 (atropisomer, axis not shown) [Example A736]	7.00 to 8.00	7.00 to 8.00	> 8.00	7.00 to 8.00	7.00 to 8.00	6.00 to 7.00	7.00 to 8.00
C=CC(=O)C1CC[C@H](C(=O)N(C)[C@H](C(=O)N[C@H]2Cc3cc(O)cc(c3)-c3ccc4c(c3)c(c(-c3cnn(C)c3[C@H](C)OC)n4CC)CC(C)(C)COC(=O)[C@@H]3CCCN(N3)C2=O)C(C)C)C1 (some centres unmarked) [Example A166]	7.00 to 8.00	7.00 to 8.00	> 8.00	5.00 to 6.00	5.00 to 6.00	5.00 to 6.00	6.00 to 7.00
C=CC(=O)N1CC[C@H](C(=O)N(C)[C@H](C(=O)N[C@H]2Cc3cc(O)cc(c3)-c3ccc4c(c3)c(c(-c3cncc5c3[C@@H](OC)CC5)n4CC)CC(C)(C)COC(=O)[C@@H]3CCCN(N3)C2=O)C(C)C)C1 [Example A275]	7.00 to 8.00	7.00 to 8.00	> 8.00	6.00 to 7.00	6.00 to 7.00	6.00 to 7.00	7.00 to 8.00
C=CC(=O)N1CC[C@H](C(=O)N(C)[C@H](C(=O)N[C@H]2Cc3nc(ns3)-c3ccc4c(c3)c(c(-c3cncnc3)n4CC)CC(C)(C)COC(=O)[C@@H]3CCCN(N3)C2=O)C(C)C)C1 [Example A285]	< 5.00	< 5.00	< 6.00	< 5.00	< 5.00	< 5.00	< 5.00
